Data from ChEMBL document CHEMBL1154111, “Potent, orally bioavailable, liver-selective stearoyl-CoA desaturase (SCD) inhibitors” (Bioorg Med Chem Lett, 2009).

Assays:
Acyl-CoA desaturase 1 = biological target: T1, Acyl-CoA desaturase 1 (Rattus norvegicus, UniProt P07308); assay: Inhibition of stearoyl-CoA delta9 desaturase in rat microsome
T1 sequence (P07308 whole entry): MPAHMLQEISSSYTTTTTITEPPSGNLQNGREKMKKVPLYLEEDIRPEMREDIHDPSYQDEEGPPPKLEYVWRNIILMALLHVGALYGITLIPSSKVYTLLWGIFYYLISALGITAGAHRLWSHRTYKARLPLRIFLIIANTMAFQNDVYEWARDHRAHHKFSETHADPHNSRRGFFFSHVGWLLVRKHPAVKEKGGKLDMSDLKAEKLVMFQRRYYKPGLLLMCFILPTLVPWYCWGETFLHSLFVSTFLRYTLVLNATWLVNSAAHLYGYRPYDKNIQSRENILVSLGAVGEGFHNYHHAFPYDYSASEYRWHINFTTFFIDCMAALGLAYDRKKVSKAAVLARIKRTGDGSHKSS

Stearoyl-CoA desaturase = biological target: T2, Stearoyl-CoA desaturase (Homo sapiens, UniProt O00767); assay: Inhibition of stearoyl-CoA delta9 desaturase in human HepG2 cells; assay type: cell-based
T2 sequence (O00767 whole entry): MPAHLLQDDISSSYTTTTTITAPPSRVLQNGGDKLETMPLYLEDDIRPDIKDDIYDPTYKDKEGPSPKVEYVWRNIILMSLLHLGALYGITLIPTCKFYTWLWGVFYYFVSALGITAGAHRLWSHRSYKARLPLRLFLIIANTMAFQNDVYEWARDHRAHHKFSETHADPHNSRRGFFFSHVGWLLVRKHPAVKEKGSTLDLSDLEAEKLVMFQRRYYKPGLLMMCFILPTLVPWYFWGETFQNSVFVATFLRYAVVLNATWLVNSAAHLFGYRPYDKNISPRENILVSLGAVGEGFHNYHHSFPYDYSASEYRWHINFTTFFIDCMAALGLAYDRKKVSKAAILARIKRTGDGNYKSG

[1] = Cmax in Sprague-Dawley rat at 1.5 mg/kg, po; assay type: ADME, organism-based; parameters: dose 1.5 mg/kg, route oral; settings: in vivo
[2] = Oral bioavailability in Sprague-Dawley rat at 1.5 mg/kg; assay type: ADME, organism-based; settings: in vivo
Rattus norvegicus [3] = assay: Dose normalized AUC in Sprague-Dawley rat at 1 mg/kg, po; assay type: ADME, organism-based; parameters: dose 1 mg/kg, route oral; settings: in vivo
[4] = Metabolic stability in Sprague-Dawley rat liver microsome after 30 mins; assay type: ADME; settings: liver microsomes, read-out: Stability
[5] = Plasma clearance in Sprague-Dawley rat plasma at 1 mg/kg, iv; assay type: ADME, organism-based; parameters: dose 1 mg/kg, route intravenous
[6] = Terminal volume of distribution in Sprague-Dawley rat at 1.5 mg/kg, po and 1 mg/kg, iv; assay type: ADME, organism-based; settings: in vivo, read-out: Vbeta
[7] = Elimination half life in Sprague-Dawley rat at 1 mg/kg, iv; assay type: ADME, organism-based; parameters: dose 1 mg/kg, route intravenous; settings: in vivo, read-out: beta t1/2 (converted)
[8] = Metabolic stability in human liver microsome after 30 mins; assay type: ADME; settings: liver microsomes, read-out: Stability
Rattus norvegicus [9] = assay: Inhibition of stearoyl-CoA delta9 desaturase in high-carbohydrate diet-fed Sprague-Dawley rat dosed orally BID for 5 days assessed as reduction in liver palmitoleic and vaccenic acid level; assay type: functional, organism-based
Rattus norvegicus [10] = assay: Inhibition of stearoyl-CoA delta9 desaturase in high-carbohydrate diet-fed Sprague-Dawley rat dosed orally BID for 5 days assessed as reduction in plasma palmitoleic and vaccenic acid level; assay type: functional, organism-based
[11] = Apparent permeability from basolateral to apical side of human Caco-2 cells; assay type: ADME, cell-based
[12] = Apparent permeability from apical to basolateral side of human Caco-2 cells; assay type: ADME, cell-based
[13] = biological target: Acyl-CoA (8-3)-desaturase (Rattus norvegicus, UniProt Q920R3); assay: Inhibition of stearoyl-CoA delta5 desaturase in rat microsome
Acyl-CoA 6-desaturase = Acyl-CoA 6-desaturase (Rattus norvegicus, UniProt Q9Z122); assay: Inhibition of stearoyl-CoA delta6 desaturase in rat microsome
Rattus norvegicus [14] = assay: Reduction in liver triglyceride level in high-carbohydrate diet-fed Sprague-Dawley rat at 20 mg/kg, po, BID after 5 days measured after 4 hrs of last dose relative to control; assay type: functional; parameters: scale not given: the % may be the effect or the level left

Sequence of Acyl-CoA (8-3)-desaturase (Q920R3 whole entry): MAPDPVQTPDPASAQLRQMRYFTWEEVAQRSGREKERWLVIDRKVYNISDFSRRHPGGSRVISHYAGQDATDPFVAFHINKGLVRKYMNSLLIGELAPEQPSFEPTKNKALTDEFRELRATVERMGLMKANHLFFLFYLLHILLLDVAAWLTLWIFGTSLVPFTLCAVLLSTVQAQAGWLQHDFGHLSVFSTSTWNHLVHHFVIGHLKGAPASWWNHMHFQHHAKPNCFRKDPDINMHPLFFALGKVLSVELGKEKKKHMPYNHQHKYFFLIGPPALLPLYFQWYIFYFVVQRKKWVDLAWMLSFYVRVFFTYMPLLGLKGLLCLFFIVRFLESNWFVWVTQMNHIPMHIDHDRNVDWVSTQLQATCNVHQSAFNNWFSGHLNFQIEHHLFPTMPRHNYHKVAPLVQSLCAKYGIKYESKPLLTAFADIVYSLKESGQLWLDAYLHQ
Sequence of Acyl-CoA 6-desaturase (Q9Z122 whole entry): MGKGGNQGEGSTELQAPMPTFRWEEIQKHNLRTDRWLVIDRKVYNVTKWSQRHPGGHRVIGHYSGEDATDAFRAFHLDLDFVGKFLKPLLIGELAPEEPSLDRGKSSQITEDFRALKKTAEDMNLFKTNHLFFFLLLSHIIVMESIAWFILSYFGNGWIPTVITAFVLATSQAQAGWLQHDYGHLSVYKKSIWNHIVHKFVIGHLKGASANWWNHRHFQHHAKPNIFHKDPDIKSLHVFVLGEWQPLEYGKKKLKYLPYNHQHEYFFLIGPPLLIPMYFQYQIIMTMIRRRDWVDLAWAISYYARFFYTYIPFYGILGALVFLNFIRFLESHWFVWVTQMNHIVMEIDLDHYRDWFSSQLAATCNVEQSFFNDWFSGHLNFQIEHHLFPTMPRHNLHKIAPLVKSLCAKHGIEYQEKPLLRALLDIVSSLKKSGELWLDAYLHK

IC50 (Acyl-CoA desaturase 1)	IC50 (Stearoyl-CoA desaturase)	remaining at 0.5 h [4]	remaining at 0.5 h [8]	SMILES	further results
8000 nM				Cc1nc2ccc(NCc3cccc(C(F)(F)F)c3)cc2n(CCNC(=O)[C@H](C)O)c1=O	
15 nM	> 1000 nM			Cc1nc2ccc(NCc3cccc(C(F)(F)F)c3)cc2n(CCNC(N)=O)c1=O	
	0.5 nM	14%	32%	O=C(CO)NCCN1C(=O)COc2ccc(NCc3ccc(Cl)c(Cl)c3)cc21	Cmax [1]: 427 ng/mL; bioavailability [2]: 39%; AUC (Rattus norvegicus [3]): 122 ng·h/mL; clearance [5]: 53 mL/min/kg; Vd [6]: 4.89 L/kg; half-life [7]: 64.2 min
38 nM		54%	56%	Cc1nc2ccc(NCc3cccc(C(F)(F)F)c3)cc2n(CCNC(=O)CO)c1=O	Activity (Rattus norvegicus [9]): Dose-dependent effect; Activity (Rattus norvegicus [10]): Dose-dependent effect; Cmax [1]: 374 ng/mL; bioavailability [2]: 78%; AUC (Rattus norvegicus [3]): 148 ng·h/mL; clearance [5]: 88.1 mL/min/kg; Papp B→A [11]: 48.2 ×10⁻⁶ cm/s; Papp A→B [12]: 6.8 ×10⁻⁶ cm/s; IC50 [13]: > 30 µM; IC50 (Acyl-CoA 6-desaturase): > 30 µM; Activity (Rattus norvegicus [14]): 50%; Vd [6]: 7.22 L/kg; half-life [7]: 57 min
80 nM		1.5%	2.3%	CC1Oc2ccc(NCc3ccc(Cl)c(Cl)c3)cc2N(CCNC(=O)CO)C1=O (racemic)	
110 nM		54%	83%	COc1ccc(-c2nc3ccc(NCc4ccc(Cl)c(Cl)c4)cc3n(CCNC(C)=O)c2=O)cc1	AUC (Rattus norvegicus [3]): 0 ng·h/mL

Further lines, the compound ahead of its results:

SMILES	IC50 (Acyl-CoA desaturase 1)	IC50 (Stearoyl-CoA desaturase)	remaining at 0.5 h [4]	remaining at 0.5 h [8]	further results
CC(C)(C)c1nc2ccc(NCc3cccc(C(F)(F)F)c3)cc2n(CCNC(=O)CO)c1=O	> 3000 nM				
Cc1nc2ccc(NCc3cccc(C(F)(F)F)c3)cc2n(CCNC(=O)CCO)c1=O	1100 nM				
CC(C)c1nc2ccc(NCc3cccc(C(F)(F)F)c3)cc2n(CCNC(=O)CO)c1=O	2800 nM				
COc1ccc(-c2nc3ccc(NCc4ccc(Cl)c(C(F)(F)F)c4)cc3n(CCNC(C)=O)c2=O)cc1	0.6 nM				
CC1(C)Oc2ccc(NCc3ccc(Cl)c(Cl)c3)cc2N(CCNC(=O)CO)C1=O	12 nM		9.6%	3.1%	
Cc1nc2ccc(NCc3cccc(C(F)(F)F)c3)cc2n(CCNC(=O)C(O)CO)c1=O (racemic)	268 nM	68 nM			
O=C(CO)NCCn1c(=O)c(C(F)(F)F)nc2ccc(NCc3cccc(C(F)(F)F)c3)cc21	1.9 nM	2.7 nM	77%	19%	
Cc1nc2ccc(NCc3cccc(C(F)(F)F)c3)cc2n(CCNC(=O)[C@@H](C)O)c1=O	3900 nM				
CC(=O)NCCn1c(=O)c(C)nc2ccc(NCc3cccc(C(F)(F)F)c3)cc21	162 nM				
O=C(CO)Nc1ccc2ncn(Cc3ccc(Cl)c(Cl)c3)c(=O)c2c1		119 nM			Cmax [1]: 360 ng/mL; AUC (Rattus norvegicus [3]): 935 ng·h/mL; Vd [6]: 2.06 L/kg
COc1ccc(-c2nc3ccc(NCc4cccc(C(F)(F)F)c4)cc3n(CCNC(C)=O)c2=O)cc1	93 nM	33 nM			
O=C(CO)Nc1ccc2ncn(Cc3ccc(Cl)c(C(F)(F)F)c3)c(=O)c2c1					Cmax [1]: 439 ng/mL; AUC (Rattus norvegicus [3]): 451 ng·h/mL; Vd [6]: 1.46 L/kg
